The results in this text go back to US20240276978A1, “Method for Dispersing Live Predatory Mites of the Phytoseiulus Genus Which Are Used in Biocontrol” (Bioline Agrosciences France, priority 2020, published 2024).

The nature of series [1]: Thickening agent solution equivalent to the standard. It is filed as physicochemical. The following applies: at concentration tested (g/L): alginate 10, modified corn starch 34, amylopectin 67, carrageenans 3, chitosan 100, dextrin 46, guar 2, xanthan 2, glycerol 860, konjac 4, Carbomer 940 4, Gel Maker EMU 4.4, PVP 60, carboxymethylcellulose 30, hydroxypropylcellulose 30, calcium chloride 280, potassium chloride 280, potassium sulfate 140.

The subject of the next series is Phytoseiulus persimilis. Put plainly: "Toxicity" of thickening agent to persimilis at 12 hours. The following applies: concentration tested (g/L): alginate 10, modified corn starch 34, carrageenans 3, guar 2, xanthan 2, glycerol 860, konjac 4, Carbomer 940 4, Gel Maker EMU 4.4, PVP 60, carboxymethylcellulose 30. It is filed as in vivo. Here is the method:
“Non-toxic” means less than 20% of biocontrol agents dead at the end of 12 hours.
A little solution containing the persimilis is kept in order to evaluate any possible “toxicity” at 12 hours.

`[Ca+2].[Cl-].[Cl-]` [Calcium chloride]: in series [1], the “Equivalent to the standard” value is “No”.
Turning to `[Cl-].[K+]` [Potassium chloride], the “Equivalent to the standard” value in series [1] was “No”.
`OCC(O)CO` [Glycerol]: the “Equivalent to the standard” value in series [1] is reported as “Yes”. Further, the ““Toxicity”” value in the series on Phytoseiulus persimilis is “Yes”.
With `O=S(=O)([O-])[O-].[K+].[K+]` [Potassium sulfate], the “Equivalent to the standard” value in series [1] is “no”.
